29 compounds from patent US9637472B2, “Substituted 6,5-fused bicyclic heteroaryl compounds” (Epizyme, Inc., priority 2011, dated 2017) can be followed below.

The target of this assay is EZH2 (Homo sapiens (Human), UniProt Q15910). The assay is described as follows: PRC2 enzyme assay on peptide substrates. The assay is classed as biochemical. The note with it: PRC2 enzyme assays on peptide substrates; 4 nM enzyme, 30 min preincubation at 25° C.; read-out: EZH2 IC50.
Sequence of EZH2 (Q15910 other isoform, or with tags, fused parts or gaps): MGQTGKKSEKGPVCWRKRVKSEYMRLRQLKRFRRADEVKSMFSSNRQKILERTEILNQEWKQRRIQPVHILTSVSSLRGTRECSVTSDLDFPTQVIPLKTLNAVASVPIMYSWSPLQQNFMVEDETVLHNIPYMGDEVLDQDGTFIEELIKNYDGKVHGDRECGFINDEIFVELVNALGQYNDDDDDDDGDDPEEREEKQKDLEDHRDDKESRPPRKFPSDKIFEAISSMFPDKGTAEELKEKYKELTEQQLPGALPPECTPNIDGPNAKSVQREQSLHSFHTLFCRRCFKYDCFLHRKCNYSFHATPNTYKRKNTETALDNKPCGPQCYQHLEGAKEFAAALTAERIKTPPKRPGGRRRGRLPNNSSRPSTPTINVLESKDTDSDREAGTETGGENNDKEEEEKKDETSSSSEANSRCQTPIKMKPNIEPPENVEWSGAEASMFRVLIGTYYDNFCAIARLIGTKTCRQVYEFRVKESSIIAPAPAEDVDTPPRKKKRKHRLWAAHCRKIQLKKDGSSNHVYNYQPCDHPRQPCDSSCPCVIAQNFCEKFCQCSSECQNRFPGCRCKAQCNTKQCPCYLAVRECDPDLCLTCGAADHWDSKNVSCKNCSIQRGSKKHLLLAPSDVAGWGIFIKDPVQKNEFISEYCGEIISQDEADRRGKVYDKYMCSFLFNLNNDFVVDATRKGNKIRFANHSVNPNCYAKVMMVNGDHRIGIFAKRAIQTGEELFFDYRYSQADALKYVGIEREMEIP
Sequence of EZH2 (O75530 whole entry partner): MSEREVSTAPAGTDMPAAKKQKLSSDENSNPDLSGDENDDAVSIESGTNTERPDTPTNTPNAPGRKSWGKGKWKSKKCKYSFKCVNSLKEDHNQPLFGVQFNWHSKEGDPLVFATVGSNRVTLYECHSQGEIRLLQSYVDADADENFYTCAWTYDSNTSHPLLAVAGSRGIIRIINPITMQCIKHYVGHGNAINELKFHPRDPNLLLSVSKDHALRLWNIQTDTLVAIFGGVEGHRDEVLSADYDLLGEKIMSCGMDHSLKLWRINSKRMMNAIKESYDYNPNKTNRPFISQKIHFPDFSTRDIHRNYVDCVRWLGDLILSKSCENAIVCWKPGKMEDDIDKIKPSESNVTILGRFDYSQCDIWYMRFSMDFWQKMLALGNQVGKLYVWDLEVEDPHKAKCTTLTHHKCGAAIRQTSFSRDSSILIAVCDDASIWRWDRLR
Sequence of EZH2 (Q15022 whole entry partner): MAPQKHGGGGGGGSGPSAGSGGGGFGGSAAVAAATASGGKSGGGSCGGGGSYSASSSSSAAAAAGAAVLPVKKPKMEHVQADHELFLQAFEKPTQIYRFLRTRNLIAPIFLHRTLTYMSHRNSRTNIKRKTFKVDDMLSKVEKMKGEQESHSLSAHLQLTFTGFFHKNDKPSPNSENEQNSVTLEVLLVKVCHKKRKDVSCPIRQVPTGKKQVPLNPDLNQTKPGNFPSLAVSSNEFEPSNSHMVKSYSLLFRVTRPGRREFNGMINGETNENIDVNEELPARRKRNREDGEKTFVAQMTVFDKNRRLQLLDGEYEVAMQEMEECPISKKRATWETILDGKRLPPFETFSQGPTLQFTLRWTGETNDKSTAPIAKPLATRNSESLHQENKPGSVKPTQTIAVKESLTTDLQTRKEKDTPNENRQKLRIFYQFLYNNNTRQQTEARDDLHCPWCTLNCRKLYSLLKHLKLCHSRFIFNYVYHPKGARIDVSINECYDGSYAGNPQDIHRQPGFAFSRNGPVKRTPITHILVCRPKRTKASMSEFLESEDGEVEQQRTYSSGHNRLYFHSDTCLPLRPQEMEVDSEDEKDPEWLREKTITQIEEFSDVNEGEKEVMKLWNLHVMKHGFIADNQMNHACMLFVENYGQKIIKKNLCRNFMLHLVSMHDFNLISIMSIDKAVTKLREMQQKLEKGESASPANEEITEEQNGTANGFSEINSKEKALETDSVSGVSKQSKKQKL
Sequence of EZH2 (Q09028 whole entry partner): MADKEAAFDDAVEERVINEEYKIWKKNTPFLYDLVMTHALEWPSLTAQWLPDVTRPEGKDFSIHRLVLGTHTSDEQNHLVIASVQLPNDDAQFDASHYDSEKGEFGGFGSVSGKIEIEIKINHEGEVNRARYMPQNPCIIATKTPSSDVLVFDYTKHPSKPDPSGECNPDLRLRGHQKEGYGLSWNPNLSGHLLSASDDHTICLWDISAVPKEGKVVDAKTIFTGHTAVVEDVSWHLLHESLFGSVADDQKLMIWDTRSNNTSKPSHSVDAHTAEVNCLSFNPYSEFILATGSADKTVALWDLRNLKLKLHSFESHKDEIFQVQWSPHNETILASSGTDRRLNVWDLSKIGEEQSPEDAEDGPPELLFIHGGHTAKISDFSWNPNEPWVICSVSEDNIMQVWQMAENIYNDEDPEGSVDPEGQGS

`Cc1cc(C)c(CNC(=O)c2cc(C3=CC(C)(C)NC(C)(C)C3)nc3c2cnn3CC(F)(F)F)c(=O)[nH]1` [Compound B-164]: the IC50 fell in the range of 3000 to 10000 nM.

As for `Cc1cc(C)c(CNC(=O)c2cc(-c3ccc(CN4CCOCC4)nc3)cc3c2cnn3C2CCCC2)c(=O)[nH]1` [Compound C-2, 1-cyclopentyl-N-((4,6-dimethyl-2-oxo-1,2-dihydropyridin-3-yl)methyl)-6-(6-(morpholinomethyl)pyridin-3-yl)-1H-indazole-4-carboxamide], the half-maximal inhibitory concentration (IC50) was under 300 nM.

As to `Cc1cc(C)c(CNC(=O)c2cc(-c3ccc(CN(C)C)cc3)cc3c2cnn3C2CCCC2)c(=O)[nH]1` [Compound C-3, 1-cyclopentyl-N-((4,6-dimethyl-2-oxo-1,2-dihydropyridin-3-yl)methyl)-6-(4-((dimethylamino)methyl)phenyl)-1H-indazole-4-carboxamide], the IC50 is under 300 nM.

Consider `Cc1cc(C)c(CNC(=O)c2cc(-c3ccc(COCCCN(C)C)cc3)cc3c2cnn3C2CCCC2)c(=O)[nH]1` [Compound C-4, 1-cyclopentyl-N-((4,6-dimethyl-2-oxo-1,2-dihydropyridin-3-yl)methyl)-6-(4-((3-(dimethylamino)propoxy)methyl)phenyl)-1H-indazole-4-carboxamide], for which the IC50 is under 300 nM.

As for `Cc1cc(C)c(CNC(=O)c2cc(-c3ccc(CN4CCOCC4)cc3)cc3c2cnn3C(C)C)c(=O)[nH]1` [Compound C-5, N-((4,6-dimethyl-2-oxo-1,2-dihydropyridin-3-yl)methyl)-1-isopropyl-6-(4-(morpholinomethyl)phenyl)-1H-indazole-4-carboxamide], the IC50 was under 300 nM.

As to `Cc1cc(C)c(CNC(=O)c2cc(-c3ccc(CN4CCOCC4)cc3C)cc3c2cnn3C2CCCC2)c(=O)[nH]1` [Compound C-6, 1-cyclopentyl-N-((4,6-dimethyl-2-oxo-1,2-dihydropyridin-3-yl)methyl)-6-(2-methyl-4-(morpholinomethyl)phenyl)-1H-indazole-4-carboxamide], the IC50 is under 300 nM.

With `Cc1cc(C)c(CNC(=O)c2cc(-c3cccc(CO)c3)cc3c2cnn3C2CCCC2)c(=O)[nH]1` [Compound C-8, 1-cyclopentyl-N-((4,6-dimethyl-2-oxo-1,2-dihydropyridine-3-yl)methyl)-6-(3-(hydroxymethyl)phenyl)-1H-indazole-4-carboxamide], the concentration for half-maximal inhibition (IC50) is 300 to 1000 nM.

`Cc1cc(C)c(CNC(=O)c2cc(-c3cccc(CNCCO)c3)cc3c2cnn3C2CCCC2)c(=O)[nH]1` [Compound C-9, 1-cyclopentyl-N-((4,6-dimethyl-2-oxo-1,2-dihydropyridin-3-yl)methyl)-6-(3-(((2-hydroxyethyl)amino)methyl)phenyl)-1H-indazole-4-carboxamide]: the IC50 is under 300 nM.

In the case of `CNCCCOc1cccc(-c2cc(C(=O)NCc3c(C)cc(C)[nH]c3=O)c3cnn(C4CCCC4)c3c2)c1` [Compound C-10, 1-cyclopentyl-N-((4,6-dimethyl-2-oxo-1,2-dihydropyridin-3-yl)methyl)-6-(3-(3-(methylamino)propoxy)phenyl)-1H-indazole-4-carboxamide], the 50% inhibitory concentration (IC50) is under 300 nM.

`Cc1cc(C)c(CNC(=O)c2cc(-c3cccc(OCCCN(C)C)c3)cc3c2cnn3C2CCCC2)c(=O)[nH]1` [Compound C-11, 1-cyclopentyl-N-((4,6-dimethyl-2-oxo-1,2-dihydropyridin-3-yl)methyl)-6-(3-(3-(dimethylamino)propoxy)phenyl)-1H-indazole-4-carboxamide]: the IC50 was under 300 nM.

Consider `CNCCCOc1ccc(-c2cc(C(=O)NCc3c(C)cc(C)[nH]c3=O)c3cnn(C4CCCC4)c3c2)cc1` [Compound C-12, 1-cyclopentyl-N-((4,6-dimethyl-2-oxo-1,2-dihydropyridin-3-yl)methyl)-6-(4-(3-(methylamino)propoxy)phenyl)-1H-indazole-4-carboxamide], for which the concentration for half-maximal inhibition (IC50) is under 300 nM.

As for `Cc1cc(C)c(CNC(=O)c2cc(-c3ccc(CN4CCC[C@@H]4C(N)=O)cc3)cc3c2cnn3C2CCCC2)c(=O)[nH]1` [Compound C-13, (R)-6-(4-((2-carbamoylpyrrolidin-1-yl)methyl)phenyl)-1-cyclopentyl-N-((4,6-dimethyl-2-oxo-1,2-dihydropyridin-3-yl)methyl)-1H-indazole-4-carboxamide], the concentration for half-maximal inhibition (IC50) was under 300 nM.

On to `Cc1cc(C)c(CNC(=O)c2cc(-c3ccc(CN4CCOCC4)cn3)cc3c2cnn3C2CCCC2)c(=O)[nH]1` [Compound C-15, 1-cyclopentyl-N-((4,6-dimethyl-2-oxo-1,2-dihydropyridin-3-yl)methyl)-6-(5-(morpholinomethyl)pyridin-2-yl)-1H-indazole-4-carboxamide], for which the IC50 is under 300 nM.

For `Cc1cc(C)c(CNC(=O)c2cc(-c3ccc(C)c(S(N)(=O)=O)c3)cc3c2cnn3C2CCCC2)c(=O)[nH]1` [Compound C-16], the IC50 was under 300 nM.

With `Cc1cc(C)c(CNC(=O)c2cc(-c3ccc(CN(C)CCCN(C)C)cc3)cc3c2cnn3C2CCCC2)c(=O)[nH]1` [Compound C-17], the 50% inhibitory concentration (IC50) was under 300 nM.

For `Cc1cc(C)c(CNC(=O)c2cc(-c3ccc(COCCCN4CCOCC4)cc3)cc3c2cnn3C2CCCC2)c(=O)[nH]1` [Compound C-18], the IC50 is under 300 nM.

On to `Cc1cc(C)c(CNC(=O)c2cc(-c3cccc(C[N+](C)(C)CCO)c3)cc3c2cnn3C2CCCC2)c(=O)[nH]1` [Compound C-19], for which the IC50 was under 300 nM.

Take `Cc1cc(C)c(CNC(=O)c2cc(-c3ccc(COCCN4CCOCC4)cc3)cc3c2cnn3C2CCCC2)c(=O)[nH]1` [Compound C-20]: the IC50 was under 300 nM.

`Cc1cc(C)c(CNC(=O)c2cc(-c3cccnc3)cc3c2cnn3C2CCCC2)c(=O)[nH]1` [Compound C-21]: the IC50 was under 300 nM.

For the compound `Cc1cc(C)c(CNC(=O)c2cc(-c3cccc(COCCN(C)C)c3)cc3c2cnn3C2CCCC2)c(=O)[nH]1` [Compound C-22], the IC50 was under 300 nM.

Take `Cc1cc(C)c(CNC(=O)c2cc(-c3cccc(COCCN)c3)cc3c2cnn3C2CCCC2)c(=O)[nH]1` [Compound C-23]: the half-maximal inhibitory concentration (IC50) is under 300 nM.

Take `Cc1cc(C)c(CNC(=O)c2cc(-c3cccc(CN4CCN(C)CC4)c3)cc3c2cnn3C(C)C)c(=O)[nH]1` [Compound C-24]: the IC50 is under 300 nM.

On to `Cc1cc(C)c(CNC(=O)c2cc(-c3ccc(CN4CCNC(=O)C4)cc3)cc3c2cnn3C2CCCC2)c(=O)[nH]1` [Compound C-25], for which the concentration for half-maximal inhibition (IC50) is under 300 nM.

As to `Cc1cc(CN(C)C)c(CNC(=O)c2cc(-c3ccc(CN4CCOCC4)cc3)cc3c2cnn3C2CCCC2)c(=O)[nH]1` [Compound C-26], the IC50 is under 300 nM.

For the compound `CCOc1ccc(S(=O)(=O)N2CCN(C)CC2)cc1-c1cc(C(=O)NCc2c(C)cc(C)[nH]c2=O)c2cnn(C3CCCC3)c2c1` [Compound C-27], the IC50 was under 300 nM.

On to `Cc1cc(C)c(CNC(=O)c2cc(-c3ccc(CN4CCOCC4)c(Cl)c3)cc3c2cnn3C2CCCC2)c(=O)[nH]1` [Compound C-28], for which the IC50 was under 300 nM.

Take `Cc1cc(C)c(CNC(=O)c2cc(-c3cccc(CN(C)CCO)c3)cc3c2cnn3C2CCCC2)c(=O)[nH]1` [Compound C-29]: the IC50 is under 300 nM.

On to `Cc1cc(C)c(CNC(=O)c2cc(-c3cnc(N)nc3)cc3c2cnn3C2CCCC2)c(=O)[nH]1` [Compound C-30], for which the IC50 was under 300 nM.

Consider `Cc1cc(C)c(CNC(=O)c2cc(-c3ccc(CN(C)C)cc3)cc3c2cnn3C2CCN(C(=O)C(C)(C)C)CC2)c(=O)[nH]1` [Compound C-31], for which the IC50 is under 300 nM.

Usually IC50 stands for the concentration needed to halve the response being measured.
